{
  "source": "patent US8192962B2",
  "about": "“Processes for detecting toxic substances” (Daikin Industries, Ltd., priority 2001, dated 2012)",
  "tested_on": "Unknown protein yeast genes",
  "assay": "DNA chip mRNA expression in yeast, unknown protein yeast genes (Table 1)",
  "type": "cell-based, Saccharomyces cerevisiae S288C",
  "outline": "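Chemical exposure: 2 h, log-phase S. cerevisiae S288C, YPD, 25° C., dose set to inhibit growth without death. Profiling: mRNA labeled by reverse transcription with Cy3- or Cy5-dUTP, hybridized to whole-genome array. Output: fluorescence ratio against untreated culture.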",
  "data": [
    {"smiles": "[Cl][Cd][Cl]", "note": "[(2), CdCl2]", "values": [
      {"measurement": "The level of expressed mRNA in the presence of chemical substance/The level of expressed mRNA in the absence of chemical substance", "setting": "yeast gene YKL195W, incubated two hours with chemical substance", "result": 0.5},
      {"measurement": "The level of expressed mRNA in the presence of chemical substance/The level of expressed mRNA in the absence of chemical substance", "setting": "yeast gene YKR091W, incubated two hours with chemical substance", "result": 2.3},
      {"measurement": "The level of expressed mRNA in the presence of chemical substance/The level of expressed mRNA in the absence of chemical substance", "setting": "yeast gene YLR054C, incubated two hours with chemical substance", "result": 1.5},
      {"measurement": "The level of expressed mRNA in the presence of chemical substance/The level of expressed mRNA in the absence of chemical substance", "setting": "yeast gene YLR149C, incubated two hours with chemical substance", "result": 1.9},
      {"measurement": "The level of expressed mRNA in the presence of chemical substance/The level of expressed mRNA in the absence of chemical substance", "setting": "yeast gene YLR152C, incubated two hours with chemical substance", "result": 1.3},
      {"measurement": "The level of expressed mRNA in the presence of chemical substance/The level of expressed mRNA in the absence of chemical substance", "setting": "yeast gene YLR194C, incubated two hours with chemical substance", "result": 2.2},
      {"measurement": "The level of expressed mRNA in the presence of chemical substance/The level of expressed mRNA in the absence of chemical substance", "setting": "yeast gene YLR324W, incubated two hours with chemical substance", "result": 1.2},
      {"measurement": "The level of expressed mRNA in the presence of chemical substance/The level of expressed mRNA in the absence of chemical substance", "setting": "yeast gene YLR350W, incubated two hours with chemical substance", "result": 1.9},
      {"measurement": "The level of expressed mRNA in the presence of chemical substance/The level of expressed mRNA in the absence of chemical substance", "setting": "yeast gene YLR387C, incubated two hours with chemical substance", "result": 1.6},
      {"measurement": "The level of expressed mRNA in the presence of chemical substance/The level of expressed mRNA in the absence of chemical substance", "setting": "yeast gene YLR460C", "result": 2.1},
      {"measurement": "The level of expressed mRNA in the presence of chemical substance/The level of expressed mRNA in the absence of chemical substance", "setting": "yeast gene YML117W, incubated two hours with chemical substance", "result": 2.2},
      {"measurement": "The level of expressed mRNA in the presence of chemical substance/The level of expressed mRNA in the absence of chemical substance", "setting": "yeast gene YMR009W, incubated two hours with chemical substance", "result": 1.9},
      {"measurement": "The level of expressed mRNA in the presence of chemical substance/The level of expressed mRNA in the absence of chemical substance", "setting": "yeast gene YMR067C, incubated two hours with chemical substance", "result": 0.9},
      {"measurement": "The level of expressed mRNA in the presence of chemical substance/The level of expressed mRNA in the absence of chemical substance", "setting": "yeast gene YMR090W", "result": 9.5},
      {"measurement": "The level of expressed mRNA in the presence of chemical substance/The level of expressed mRNA in the absence of chemical substance", "setting": "yeast gene YMR095C, incubated two hours with chemical substance", "result": 2.0},
      {"measurement": "The level of expressed mRNA in the presence of chemical substance/The level of expressed mRNA in the absence of chemical substance", "setting": "yeast gene YMR097C, incubated two hours with chemical substance", "result": 1.0},
      {"measurement": "The level of expressed mRNA in the presence of chemical substance/The level of expressed mRNA in the absence of chemical substance", "setting": "yeast gene YMR102C, incubated two hours with chemical substance", "result": 2.9},
      {"measurement": "The level of expressed mRNA in the presence of chemical substance/The level of expressed mRNA in the absence of chemical substance", "setting": "yeast gene YMR107W, incubated two hours with chemical substance", "result": 3.9},
      {"measurement": "The level of expressed mRNA in the presence of chemical substance/The level of expressed mRNA in the absence of chemical substance", "setting": "yeast gene YMR180C, incubated two hours with chemical substance", "result": 0.9},
      {"measurement": "The level of expressed mRNA in the presence of chemical substance/The level of expressed mRNA in the absence of chemical substance", "setting": "yeast gene YMR184W, incubated two hours with chemical substance", "result": 5.4},
      {"measurement": "The level of expressed mRNA in the presence of chemical substance/The level of expressed mRNA in the absence of chemical substance", "setting": "yeast gene YMR191W, incubated two hours with chemical substance", "result": 2.4},
      {"measurement": "The level of expressed mRNA in the presence of chemical substance/The level of expressed mRNA in the absence of chemical substance", "setting": "yeast gene YMR295C, incubated two hours with chemical substance", "result": 1.0},
      {"measurement": "The level of expressed mRNA in the presence of chemical substance/The level of expressed mRNA in the absence of chemical substance", "setting": "yeast gene YMR316W, incubated two hours with chemical substance", "result": 2.9},
      {"measurement": "The level of expressed mRNA in the presence of chemical substance/The level of expressed mRNA in the absence of chemical substance", "setting": "yeast gene YNL044W, incubated two hours with chemical substance", "result": 0.9},
      {"measurement": "The level of expressed mRNA in the presence of chemical substance/The level of expressed mRNA in the absence of chemical substance", "setting": "yeast gene YNL074C, incubated two hours with chemical substance", "result": 1.3},
      {"measurement": "The level of expressed mRNA in the presence of chemical substance/The level of expressed mRNA in the absence of chemical substance", "setting": "yeast gene YNL092W, incubated two hours with chemical substance", "result": 1.4},
      {"measurement": "The level of expressed mRNA in the presence of chemical substance/The level of expressed mRNA in the absence of chemical substance", "setting": "yeast gene YNL115C, incubated two hours with chemical substance", "result": 1.8},
      {"measurement": "The level of expressed mRNA in the presence of chemical substance/The level of expressed mRNA in the absence of chemical substance", "setting": "yeast gene YNL156C, incubated two hours with chemical substance", "result": 1.2},
      {"measurement": "The level of expressed mRNA in the presence of chemical substance/The level of expressed mRNA in the absence of chemical substance", "setting": "yeast gene YNL234W, incubated two hours with chemical substance", "result": 1.1},
      {"measurement": "The level of expressed mRNA in the presence of chemical substance/The level of expressed mRNA in the absence of chemical substance", "setting": "yeast gene YNL281W, incubated two hours with chemical substance", "result": 1.3},
      {"measurement": "The level of expressed mRNA in the presence of chemical substance/The level of expressed mRNA in the absence of chemical substance", "setting": "yeast gene YNL305C, incubated two hours with chemical substance", "result": 2.2},
      {"measurement": "The level of expressed mRNA in the presence of chemical substance/The level of expressed mRNA in the absence of chemical substance", "setting": "yeast gene YNR068C, incubated two hours with chemical substance", "result": 1.5},
      {"measurement": "The level of expressed mRNA in the presence of chemical substance/The level of expressed mRNA in the absence of chemical substance", "setting": "yeast gene YOL032W, incubated two hours with chemical substance", "result": 0.8},
      {"measurement": "The level of expressed mRNA in the presence of chemical substance/The level of expressed mRNA in the absence of chemical substance", "setting": "yeast gene YOL036W, incubated two hours with chemical substance", "result": 0.9},
      {"measurement": "The level of expressed mRNA in the presence of chemical substance/The level of expressed mRNA in the absence of chemical substance", "setting": "yeast gene YOL047C, incubated two hours with chemical substance", "result": 1.1},
      {"measurement": "The level of expressed mRNA in the presence of chemical substance/The level of expressed mRNA in the absence of chemical substance", "setting": "yeast gene YOL071W, incubated two hours with chemical substance", "result": 2.0},
      {"measurement": "The level of expressed mRNA in the presence of chemical substance/The level of expressed mRNA in the absence of chemical substance", "setting": "yeast gene YOL082W, incubated two hours with chemical substance", "result": 1.6},
      {"measurement": "The level of expressed mRNA in the presence of chemical substance/The level of expressed mRNA in the absence of chemical substance", "setting": "yeast gene YOL083W, incubated two hours with chemical substance", "result": 2.3},
      {"measurement": "The level of expressed mRNA in the presence of chemical substance/The level of expressed mRNA in the absence of chemical substance", "setting": "yeast gene YOL117W, incubated two hours with chemical substance", "result": 1.1},
      {"measurement": "The level of expressed mRNA in the presence of chemical substance/The level of expressed mRNA in the absence of chemical substance", "setting": "yeast gene YOL131W, incubated two hours with chemical substance", "result": 1.5},
      {"measurement": "The level of expressed mRNA in the presence of chemical substance/The level of expressed mRNA in the absence of chemical substance", "setting": "yeast gene YOL150C", "result": 3.7},
      {"measurement": "The level of expressed mRNA in the presence of chemical substance/The level of expressed mRNA in the absence of chemical substance", "setting": "yeast gene YOL162W, incubated two hours with chemical substance", "result": 6.9},
      {"measurement": "The level of expressed mRNA in the presence of chemical substance/The level of expressed mRNA in the absence of chemical substance", "setting": "yeast gene YOR019W, incubated two hours with chemical substance", "result": 1.2},
      {"measurement": "The level of expressed mRNA in the presence of chemical substance/The level of expressed mRNA in the absence of chemical substance", "setting": "yeast gene YOR197W, incubated two hours with chemical substance", "result": 1.0},
      {"measurement": "The level of expressed mRNA in the presence of chemical substance/The level of expressed mRNA in the absence of chemical substance", "setting": "yeast gene YPL087W, incubated two hours with chemical substance", "result": 5.1},
      {"measurement": "The level of expressed mRNA in the presence of chemical substance/The level of expressed mRNA in the absence of chemical substance", "setting": "yeast gene YPL196W, incubated two hours with chemical substance", "result": 1.6},
      {"measurement": "The level of expressed mRNA in the presence of chemical substance/The level of expressed mRNA in the absence of chemical substance", "setting": "yeast gene YPL206C, incubated two hours with chemical substance", "result": 2.9},
      {"measurement": "The level of expressed mRNA in the presence of chemical substance/The level of expressed mRNA in the absence of chemical substance", "setting": "yeast gene YPL222W, incubated two hours with chemical substance", "result": 3.5},
      {"measurement": "The level of expressed mRNA in the presence of chemical substance/The level of expressed mRNA in the absence of chemical substance", "setting": "yeast gene YPR023C, incubated two hours with chemical substance", "result": 1.4},
      {"measurement": "The level of expressed mRNA in the presence of chemical substance/The level of expressed mRNA in the absence of chemical substance", "setting": "yeast gene YPR151C, incubated two hours with chemical substance", "result": 2.0}
    ]}
  ]
}
